Assay results reported in patent publication US20040121946A9, “Inducing cellular immune responses to her2/neu using peptide and nucleic acid compositions” (priority 2002, published 2004).

Legend:
[1] = test system: HLA-DR molecules (DR1, DR4w4, DR7, DRB5*0101, DRB1*1501, DRB1*1101, DRB1*0802, DRB1*1302); assay: DR supertype cross-reactive binding; set-up: species or system human; details: for DR147 Cross-binding: number of DR1, DR4w4, DR7 bound, Table XXVIII
DRB1*0301 (DR3) = DRB1*0301 (DR3) (Homo sapiens, UniProt P01903+P01911, A100K/A102G/A103R/A169T/F55Y/I96L/K41T/L162R/M171V/P40S/Q125H/Q178H/Q39Y/R42S/S66N/T106N/T262R/W38E/Y61H); assay: HLA class II peptide binding assay, purified HLA; details: unit not given
DRB1*0301 (DR3), sequence (P01903 26-254 limits assumed, other chains not shown): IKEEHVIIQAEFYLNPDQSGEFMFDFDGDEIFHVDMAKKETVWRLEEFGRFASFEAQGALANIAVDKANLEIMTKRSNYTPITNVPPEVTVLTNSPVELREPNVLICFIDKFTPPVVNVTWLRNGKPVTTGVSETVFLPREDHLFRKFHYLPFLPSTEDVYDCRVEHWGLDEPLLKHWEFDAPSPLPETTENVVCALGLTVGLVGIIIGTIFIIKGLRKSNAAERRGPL

[2] = Table XIX, DR supermotif peptides
[3] = Table XXa, DR 3a motif peptides

## CC[C@H](C)[C@H](NC(=O)[C@@H](NC(=O)[C@H](CS)NC(=O)[C@@H](NC(=O)[C@@H]1CCCN1C(=O)[C@@H]1CCCN1C(=O)[C@H](CCC(N)=O)NC(=O)[C@@H]1CCCN1C(=O)[C@H](CC(C)C)NC(=O)[C@H](CCCNC(=N)N)NC(=O)[C@H](CCC(=O)O)NC(=O)CN)[C@@H](C)CC)[C@@H](C)O)C(=O)N[C@@H](CC(=O)O)C(=O)N[C@H](C(=O)N[C@@H](Cc1ccc(O)cc1)C(=O)O)C(C)C
[1]
  DR147 Cross-binding: 0

## CC[C@H](C)[C@H](NC(=O)CNC(=O)[C@@H](NC(=O)[C@@H](NC(=O)[C@H](C)NC(=O)[C@H](CO)NC(=O)[C@@H](NC(=O)[C@@H](NC(=O)[C@H](CO)NC(=O)[C@@H](NC(=O)[C@@H](N)CC(C)C)[C@@H](C)O)[C@@H](C)CC)[C@@H](C)CC)C(C)C)C(C)C)C(=O)N[C@@H](CC(C)C)C(=O)N[C@@H](CC(C)C)C(=O)N[C@H](C(=O)N[C@H](C(=O)O)C(C)C)C(C)C
[1]
  DR147 Cross-binding: 1

## CC(C)C[C@H](NC(=O)[C@@H]1CCCN1C(=O)[C@H](C)NC(=O)[C@@H](NC(=O)[C@H](CC(N)=O)NC(=O)[C@H](CO)NC(=O)[C@H](C)NC(=O)[C@@H]1CCCN1C(=O)[C@H](CC(=O)O)NC(=O)CNC(=O)[C@H](CC(=O)O)NC(=O)[C@H](Cc1ccccc1)NC(=O)[C@H](CO)NC(=O)[C@H](CCC(=O)O)NC(=O)[C@@H]1CCCN1)[C@@H](C)O)C(=O)O
DRB1*0301 (DR3); [2]
  DR3 binding data: −0.0027
DRB1*0301 (DR3); [3]
  DR3 binding data: −0.0027

## CC[C@H](C)[C@H](NC(=O)[C@@H]1CCCN1C(=O)[C@H](CCSC)NC(=O)[C@H](Cc1ccc(O)cc1)NC(=O)[C@H](CO)NC(=O)[C@H](CC(C)C)NC(=O)[C@H](CC(=O)O)NC(=O)[C@@H]1CCCN1C(=O)[C@H](CCCCN)NC(=O)[C@@H](NC(=O)CNC(=O)[C@H](CO)NC(=O)[C@@H]1CCCN1)C(C)C)C(=O)N[C@@H](Cc1c[nH]c2ccccc12)C(=O)N[C@@H](CCCCN)C(=O)O
DRB1*0301 (DR3); [2]
  DR3 binding data: −0.0027
DRB1*0301 (DR3); [3]
  DR3 binding data: −0.0027

## CSCC[C@H](NC(=O)[C@H](CC(=O)O)NC(=O)[C@H](CC(=O)O)NC(=O)[C@H](CC(=O)O)NC(=O)[C@H](CCC(=O)O)NC(=O)[C@H](CC(C)C)NC(=O)[C@H](CC(C)C)NC(=O)[C@H](CO)NC(=O)[C@@H](N)CCCNC(=N)N)C(=O)NCC(=O)N[C@@H](CC(=O)O)C(=O)N[C@@H](CC(C)C)C(=O)N[C@H](C(=O)N[C@@H](CC(=O)O)C(=O)N[C@@H](C)C(=O)O)C(C)C
DRB1*0301 (DR3); [2]
  DR3 binding data: 0.0080
DRB1*0301 (DR3); [3]
  DR3 binding data: 0.0080

## CC(C)C[C@H](NC(=O)CNC(=O)[C@H](Cc1c[nH]c2ccccc12)NC(=O)[C@@H](N)CCCNC(=N)N)C(=O)N[C@@H](CC(C)C)C(=O)N[C@@H](CC(C)C)C(=O)N[C@@H](C)C(=O)N[C@@H](CC(C)C)C(=O)N[C@@H](CC(C)C)C(=O)N1CCC[C@H]1C(=O)N1CCC[C@H]1C(=O)NCC(=O)N[C@@H](C)C(=O)N[C@@H](C)C(=O)N[C@@H](CO)C(=O)O
[1]
  DR147 Cross-binding: 2
[1]; number of the 8 DR alleles bound
  Broad Binding (5/8): 6

## CC(C)C[C@H](NC(=O)[C@@H](NC(=O)[C@H](CCC(=O)O)NC(=O)[C@H](Cc1ccccc1)NC(=O)[C@@H](NC(=O)[C@H](CCC(N)=O)NC(=O)[C@H](CC(C)C)NC(=O)[C@H](CCC(N)=O)NC(=O)[C@H](CCC(=O)O)NC(=O)[C@@H]1CCCN1C(=O)[C@H](CCC(N)=O)NC(=O)[C@H](CC(C)C)NC(=O)[C@@H]1CCCN1C(=O)[C@H](C)NC(=O)[C@@H](N)[C@@H](C)O)C(C)C)[C@@H](C)O)C(=O)O
DRB1*0301 (DR3); [2]
  DR3 binding data: 0.0023

## CC(C)C[C@H](NC(=O)[C@H](CCC(N)=O)NC(=O)[C@H](CC(=O)O)NC(=O)[C@H](Cc1c[nH]c2ccccc12)NC(=O)[C@@H]1CCCN1C(=O)[C@@H](NC(=O)[C@@H](NC(=O)[C@H](Cc1c[nH]cn1)NC(=O)[C@@H](N)C(C)C)[C@@H](C)O)C(C)C)C(=O)N[C@@H](Cc1ccccc1)C(=O)N[C@@H](CCCNC(=N)N)C(=O)N[C@@H](CC(N)=O)C(=O)N1CCC[C@H]1C(=O)N[C@@H](Cc1c[nH]cn1)C(=O)N[C@@H](CCC(N)=O)C(=O)O
DRB1*0301 (DR3); [2]
  DR3 binding data: 0.0220
DRB1*0301 (DR3); [3]
  DR3 binding data: 0.0220
